The IC50 is the concentration at which inhibition is half-maximal.

Each structure is given as a SMILES string.

These results are taken from US8586550B2, “Thiazole derivatives as SGLT2 inhibitors and pharmaceutical composition comprising same” (Green Cross Corporation, priority 2010, dated 2013).

The assay has as its target T1, Human SGLT2 (hSGLT2) (Homo sapiens, UniProt P31639).
T1 construct: expressed in transfected cells
T1 sequence (P31639 1-672): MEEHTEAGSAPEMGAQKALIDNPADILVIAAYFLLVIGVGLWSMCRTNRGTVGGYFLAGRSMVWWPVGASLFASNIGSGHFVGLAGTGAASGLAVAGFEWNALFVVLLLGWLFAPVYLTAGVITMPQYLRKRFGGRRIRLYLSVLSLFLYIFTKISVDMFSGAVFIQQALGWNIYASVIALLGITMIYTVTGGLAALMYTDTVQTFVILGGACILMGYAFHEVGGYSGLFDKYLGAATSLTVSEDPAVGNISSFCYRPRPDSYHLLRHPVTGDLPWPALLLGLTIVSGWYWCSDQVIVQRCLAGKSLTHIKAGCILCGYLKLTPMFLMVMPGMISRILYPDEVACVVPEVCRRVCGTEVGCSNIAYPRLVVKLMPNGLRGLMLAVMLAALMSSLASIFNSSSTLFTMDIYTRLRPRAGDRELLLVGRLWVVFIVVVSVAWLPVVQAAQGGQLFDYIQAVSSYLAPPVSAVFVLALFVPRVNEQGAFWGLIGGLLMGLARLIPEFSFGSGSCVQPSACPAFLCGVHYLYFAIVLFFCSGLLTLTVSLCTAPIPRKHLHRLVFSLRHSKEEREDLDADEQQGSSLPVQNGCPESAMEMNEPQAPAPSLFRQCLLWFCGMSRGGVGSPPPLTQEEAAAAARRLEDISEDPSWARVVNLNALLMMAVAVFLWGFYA
Nature of the assay: Sodium-dependent glucose transport (14C-AMG uptake) assay in CHO cells stably expressing hSGLT2. It is filed as cell-based. Conditions: CHO cells expressing hSGLT2, 14C-AMG uptake, 37° C. for 2 h; single determinations; read-out: hSGLT2 Inhibitory Activity IC50. In a few lines:
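CHO cells stably expressing human SGLT2, preincubated 10 min at 37 °C in sodium-free choline buffer, then 2 h at 37 °C in Na+ buffer with 1 mM AMG plus 8 μM 14C-AMG and inhibitor. Washed cells counted by scintillation; IC50 by nonlinear regression.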
For the compound `CCc1cnc(Cc2cc([C@@H]3O[C@H](CO)[C@@H](O)[C@H](O)[C@H]3O)c(Cl)cc2Cl)s1` [Example 64, (2S,3R,4R,5S,6R)-2-(2,4-Dichloro-5-((5-ethylthiazol-2-yl)methyl)phenyl)-6-(hydroxymethyl)tetrahydro-2H-pyran-3,4,5-triol], the IC50 was found to be 26.3 nM.

`CCc1cnc(Cc2cn([C@@H]3O[C@H](CO)[C@@H](O)[C@H](O)[C@H]3O)c3ccccc23)s1` [Example 133, (2R,3R,4S,5S,6R)-2-(3-((5-Ethylthiazol-2-yl)methyl)-1H-indol-1-yl)-6-(hydroxymethyl)tetrahydro-2H-pyran-3,4,5-triol]: the IC50 stood at 180 nM.

With `OC[C@H]1O[C@@H](c2cc(Cc3ncc(-c4ccco4)s3)c(Cl)cc2OCCn2cncn2)[C@H](O)[C@@H](O)[C@@H]1O` [Example 122, (2S,3R,4R,5S,6R)-2-(2-(2-(1H-1,2,4-Triazol-1-yl)ethoxy)-4-chloro-5-((5-(furan-2-yl)thiazol-2-yl)methyl)phenyl)-6-(hydroxymethyl)-tetrahydro-2H-pyran-3,4,5-triol], the IC50 came to 131 nM.

With `O[C@@H]1[C@@H](O)[C@H](c2ccc(Cl)c(Cc3ncc(-c4ccco4)s3)c2)O[C@H](CF)[C@H]1O` [Example 145, (2S,3R,4R,5S,6S)-2-(4-Chloro-3-((5-(furan-2-yl)thiazol-2-yl)methyl)phenyl)-6-(fluoromethyl)-tetrahydro-2H-pyran-3,4,5-triol], the IC50 turned out to be 10.6 nM.

Regarding `OC[C@H]1O[C@@H](c2ccc(Cl)c(Cc3cnc(-c4ccccc4)s3)c2)[C@H](O)[C@@H](O)[C@@H]1O` [Example 183, (2S,3R,4R,5S,6R)-2-(4-Chloro-3-((2-phenylthiazol-5-yl)methyl)phenyl)-6-(hydroxymethyl)-tetrahydro-2H-pyran-3,4,5-triol], the concentration for half-maximal inhibition (IC50) is 5.76 nM.

Take `OC[C@H]1O[C@@H](c2ccc(Cl)c(Cc3ncc(-c4cccs4)s3)c2)[C@H](O)[C@@H](O)[C@@H]1O` [Example 7, (2S,3R,4R,5S,6R)-2-(4-Chloro-3-((5-(thiophen-2-yl)thiazol-2-yl)methyl)phenyl)-6-(hydroxymethyl)tetrahydro-2H-pyran-3,4,5-triol]: the IC50 stood at 3.2 nM.

As for `OC[C@H]1O[C@@H](c2ccc(Cl)c(Cc3cnc(-c4ccsc4)s3)c2)[C@H](O)[C@@H](O)[C@@H]1O` [Example 190, (2S,3R,4R,5S,6R)-2-(4-Chloro-3-((2-(thiophen-3-yl)thiazol-5-yl)methyl)phenyl)-6-(hydroxymethyl)tetrahydro-2H-pyran-3,4,5-triol], the IC50 was determined as 0.901 nM.

On to `OC[C@H]1O[C@@H](c2cc(Cc3cnc(-c4ccsc4)s3)c(Cl)cc2F)[C@H](O)[C@@H](O)[C@@H]1O` [Example 203, (2S,3R,4R,5S,6R)-2-(4-Chloro-2-fluoro-5-((2-(thiophen-3-yl)thiazol-5-yl)methyl)phenyl)-6-(hydroxymethyl)tetrahydro-2H-pyran-3,4,5-triol], for which the IC50 was 1.39 nM.

`CCCCCCCc1cnc(Cc2cc([C@@H]3O[C@H](CO)[C@@H](O)[C@H](O)[C@H]3O)c3ccccc3c2O)s1` [Example 127, (2S,3R,4R,5S,6R)-2-(3-((5-Heptylthiazol-2-yl)methyl)-4-hydroxynaphthalen-1-yl)-6-(hydroxymethyl)-tetrahydro-2H-pyran-3,4,5-triol]: the IC50 amounted to 32.8 nM.

For the compound `CCCCOC(=O)OC[C@H]1O[C@@H](c2ccc(Cl)c(Cc3ncc(-c4ccco4)s3)c2)[C@H](O)[C@@H](O)[C@@H]1O` [Example 161, Butyl ((2R,3S,4R,5R,6S)-6-(4-chloro-3-((5-(furan-2-yl)thiazol-2-yl)methyl)phenyl)-3,4,5-trihydroxytetrahydro-2H-pyran-2-yl)methyl carbonate], the IC50 amounted to 5.08 nM.

For the compound `OC[C@H]1O[C@@H](c2cc(Cc3ncc(-c4cccs4)s3)c(Cl)cc2Cl)[C@H](O)[C@@H](O)[C@@H]1O` [Example 61, (2S,3R,4R,5S,6R)-2-(2,4-Dichloro-5-((5-(thiophen-2-yl)thiazol-2-yl)methyl)phenyl)-6-(hydroxymethyl)tetrahydro-2H-pyran-3,4,5-triol], the IC50 was found to be 4.77 nM.

For `CCOC(=O)c1cnc(Cc2cc([C@@H]3O[C@H](CO)[C@@H](O)[C@H](O)[C@H]3O)ccc2Cl)s1` [Example 106, Ethyl 2-(2-chloro-5-((2S,3R,4R,5S,6R)-3,4,5-trihydroxy-6-(hydroxymethyl)-tetrahydro-2H-pyran-2-yl)benzyl)thiazole-5-carboxylate], the IC50 was 50.3 nM.

For the compound `OC[C@H]1O[C@@H](c2cc(Cc3ncc(-c4ccccc4)s3)c(Cl)cc2F)[C@H](O)[C@@H](O)[C@@H]1O` [Example 57, (2S,3R,4R,5S,6R)-2-(4-Chloro-2-fluoro-5-((5-phenylthiazol-2-yl)methyl)phenyl)-6-(hydroxymethyl)tetrahydro-2H-pyran-3,4,5-triol], the IC50 stood at 4.57 nM.

In the case of `COc1cc(Cl)c(Cc2ncc(-c3ccc(F)cc3)s2)cc1[C@@H]1O[C@H](CO)[C@@H](O)[C@H](O)[C@H]1O` [Example 74, (2S,3R,4R,5S,6R)-2-(4-Chloro-5-((5-(4-fluorophenyl)thiazol-2-yl)methyl)-2-methoxyphenyl)-6-(hydroxymethyl)tetrahydro-2H-pyran-3,4,5-triol], the IC50 is 6.08 nM.

For `CCCCCCc1cnc(Cc2cc([C@@H]3O[C@H](CO)[C@@H](O)[C@H](O)[C@H]3O)ccc2Cl)s1` [Example 15, (2S,3R,4R,5S,6R)-2-(4-Chloro-3-((5-hexylthiazol-2-yl)methyl)phenyl)-6-(hydroxymethyl)-tetrahydro-2H-pyran-3,4,5-triol], the IC50 worked out at 5 nM.

`COCCOc1cc(Cl)c(Cc2ncc(-c3ccco3)s2)cc1[C@@H]1O[C@H](CO)[C@@H](O)[C@H](O)[C@H]1O` [Example 117, (2S,3R,4R,5S,6R)-2-(4-Chloro-5-((5-(furan-2-yl)thiazol-2-yl)methyl)-2-(2-methoxyethoxy)phenyl)-6-(hydroxymethyl)-tetrahydro-2H-pyran-3,4,5-triol]: the IC50 came to 5.55 nM.

In the case of `OC[C@H]1O[C@@H](c2ccc(Cl)c(Cc3cnc(-c4cccs4)s3)c2)[C@H](O)[C@@H](O)[C@@H]1O` [Example 187, (2S,3R,4R,5S,6R)-2-(4-Chloro-3-((2-(thiophen-2-yl)thiazol-5-yl)methyl)phenyl)-6-(hydroxymethyl)tetrahydro-2H-pyran-3,4,5-triol], the IC50 was determined as 2.79 nM.

As for `OC[C@H]1O[C@@H](c2cc(Cc3ncc(-c4ccoc4)s3)c(Cl)cc2Cl)[C@H](O)[C@@H](O)[C@@H]1O` [Example 60, (2S,3R,4R,5S,6R)-2-(2,4-Dichloro-5-((5-(furan-3-yl)thiazol-2-yl)methyl)phenyl)-6-(hydroxymethyl)tetrahydro-2H-pyran-3,4,5-triol], the IC50 was 13.3 nM.

For the compound `Cc1cnc(Cc2cn([C@@H]3O[C@H](CO)[C@@H](O)[C@H](O)[C@H]3O)c3ccccc23)s1` [Example 132, (2R,3S,4S,5R,6R)-2-(Hydroxymethyl)-6-(3-((5-methylthiazol-2-yl)methyl)-1H-indol-1-yl)tetrahydro-2H-pyran-3,4,5-triol], the IC50 is 162 nM.

Take `OC[C@H]1O[C@@H](c2cccc(Cc3ncc(-c4ccco4)s3)c2)[C@H](O)[C@@H](O)[C@@H]1O` [Example 111, (2S,3R,4R,5S,6R)-2-(3-((5-(Furan-2-yl)thiazol-2-yl)methyl)phenyl)-6-(hydroxymethyl)-tetrahydro-2H-pyran-3,4,5-triol]: the IC50 is 22.6 nM.
